SMILES strings stand for the structures. Values after ≈ are worked out from the molar mass of the structure shown. Where a name gives a salt, the structure may show the parent alone. Read-outs that look alike come from different tables or passages of the source.

In one series the test system is cleaved PARP. In words: PARP cleavage in HeLa cells (Western Blot). Further details: key: represented by the symbol ‘+’ which indicates the relative extent of modulation; ++: represented by the symbol ‘+’ which indicates the relative extent of modulation; +++: represented by the symbol ‘+’ which indicates the relative extent of modulation; ++++: represented by the symbol ‘+’ which indicates the relative extent of modulation. As to conditions: 24 hrs, 0.03-3.0 μM. The series is classed as cell-based. The protocol: HeLa Cells were seeded (0.3×10^6 Cells/well) into a 6 well plate and after 24 hrs compounds were added in 5 different concentrations (0.03, 0.1, 0.3, 1.0, 3.0 μM). After 24 hrs cells were lysed and cellular extract was used for assessing apoptotic activity by detection of cleaved PARP by Western Blot using monoclonal Anti-poly(ADP-Ribose) polymerase antibody, Clone C-2-10(Sigma).
Background: A western blot detects proteins with antibodies after separation by electrophoresis.

The next series addresses T1, CYP 1A2 (Homo sapiens, UniProt P05177).
T1 construct: purchased
T1 sequence (P05177 1-516): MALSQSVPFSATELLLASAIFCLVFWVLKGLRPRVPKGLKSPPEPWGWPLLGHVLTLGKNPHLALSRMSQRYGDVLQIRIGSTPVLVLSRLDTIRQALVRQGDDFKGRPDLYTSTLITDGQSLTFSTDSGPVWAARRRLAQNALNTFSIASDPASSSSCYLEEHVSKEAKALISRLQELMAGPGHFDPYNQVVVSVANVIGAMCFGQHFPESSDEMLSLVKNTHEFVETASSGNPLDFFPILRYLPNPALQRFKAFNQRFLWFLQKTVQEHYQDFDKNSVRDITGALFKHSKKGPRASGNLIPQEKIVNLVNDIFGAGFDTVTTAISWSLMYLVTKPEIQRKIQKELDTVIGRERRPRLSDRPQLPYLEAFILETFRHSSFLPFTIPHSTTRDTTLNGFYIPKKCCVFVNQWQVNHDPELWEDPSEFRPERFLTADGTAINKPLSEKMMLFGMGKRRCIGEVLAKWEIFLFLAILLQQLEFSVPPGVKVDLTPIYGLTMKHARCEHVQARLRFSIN
Nature of the series: Cytochrome-P450 isoforms liability determination. The class given is in vitro ADME. Here is the method: (§1) To determine the test compound liability towards Human cytochrome 450 (hCYP450) Isoforms fluorescence based screening kits.
(§2) Brief procedure: 2× test compounds were prepared by dilution with deionized water. A serial dilution of the test compound was done. 2× solution of known inhibitor were used as a positive control. 40 μL of the 2× solution that is prepared was added to the desired wells. Two replicates were included for every compound. 50 μL of the Master premix (premix of CYP450 Baclosomes, reagents and regenerating system) was dispensed into each well. The plate was incubated for 20 min at room temperature to allow the compounds to interact with the CYP450enzymes. The reaction was started by adding 10 μL of the substrate and NADP^+ mixture. The plate was incubated for the desired amount of time, and then 10 μL of stop reagent was added to each well to quench the reaction. The fluorescence was measured in the fluorescent plate reader at excitation and emission wavelengths as recommended, depending on the substrate used.

In the next series the target is T2, CYP 2C19 (Homo sapiens, UniProt P33261).
T2 construct: purchased
Nature of the series: Cytochrome-P450 isoforms liability determination. The class given is in vitro ADME. Here is the method: as §1, §2

A further series concerns the target T3, CYP 2C9 (Homo sapiens, UniProt P11712).
T3 construct: purchased
Nature of the series: Cytochrome-P450 isoforms liability determination. The class given is in vitro ADME. The protocol:
as §1, §2

Another series has as its target T4, CYP 2D6 (Homo sapiens, UniProt P10635).
T4 construct: purchased
Nature of the series: Cytochrome-P450 isoforms liability determination. The series is classed as in vitro ADME. Here is the method: as §1, §2

In the next series the test system is acetyl-Histone H4. In words: Histone hyperacetylation in Hela cells (Western Blot). Further details: key: represented by the symbol ‘+’ which indicates the relative extent of modulation; ++: represented by the symbol ‘+’ which indicates the relative extent of modulation; +++: represented by the symbol ‘+’ which indicates the relative extent of modulation; ++++: represented by the symbol ‘+’ which indicates the relative extent of modulation. As to conditions: 24 hrs, 0.03-3.0 μM. The series is classed as cell-based. Here is the method:
HeLa Cells were seeded at a density of 0.4×10^6 Cells/well into 6 well plates and incubated for 24 h The compounds were tested at 5 different concentrations (0.03, 0.1, 0.3, 1.0, 3.0 μM) with corresponding control. After 24 hrs cells were lysed and histone proteins were extracted as per established protocols and the extract was used for measuring H3 and H4 hyperacetylation by Western Blot using Anti-acetyl-Histone H3 and Anti-acetyl-Histone H4 (Millipore, USA) antibodies.

For a further series, the system named is Caspase-3. Nature of the series: Caspase-3 activity in HT-29 cells. The class given is cell-based. As to conditions: Homo sapiens, 48 hours. The protocol: Caspase-3 activity was measured in HT-29 cells using Caspase-3 assay kit, (Sigma). HT-29 cells were seeded (10,000 cells/well) in a 96 well plate and incubated overnight. Cells were treated with several concentrations (30, 10, 3, 1, 0.3, 0.1, 0.03, 0.01 μM) of the compounds and incubated for 48 hours and the cells were lysed. Assay was carried out according to the manufacturer's protocol. The fluorescent substrate was added in to the cell lysate and the fluorescence was measured at λexi360 and λemi460.

The test system of the next series is NCI-H460. Nature of the series: Cell proliferation assay (MTT). As to conditions: Homo sapiens. The class given is cell-based. The method in brief: (§3)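 MTT was added for 3 h, formazan dissolved in DMSO and A570 read. GI50 interpolated from dose-response curves of percentage growth relative to a T0 plate.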
Another series concerns PA-1. Nature of the series: Cell proliferation assay (MTT). The class given is cell-based. As to conditions: Homo sapiens. The method in brief:
as §3

Series [1] in a line: Absolute aqueous solubility. The class given is physicochemical. As to conditions: 25 °C, thermodynamic from solid; water, about 6 hrs equilibration, 25 deg centigrade, UV. Here is the method:
The objective of the study was to determine the absolute solubility of the powder form of the test compounds in water. Brief procedure: The powder form of test compounds was allowed to saturate in an aqueous medium and is equilibrated for about 6 hrs until the compound precipitates. The precipitated solution was centrifuged at 15,000 rpm for 10 mins at 25 deg centigrade and the supernatant solution was analyzed by UV spectrometry. If required the supernatant was diluted further until the absorbance by UV spectroscopy was within the limits of the standard curve obtained with the test compound. λmax was selected from UV spectra having maximum absorbance for that compound.

Where [2] appears, read: fluorescence based kit, read-out: CYP liability (IC50 in μM) CYP 1A2.
The mark [3] stands for this setting: fluorescence based kit, read-out: CYP liability (IC50 in μM) CYP 2C19.
Where [4] appears, read: fluorescence based kit, read-out: CYP liability (IC50 in μM) CYP 2C9.
Setting [5] is: fluorescence based kit, read-out: CYP liability (IC50 in μM) CYP 2D6.
Setting [6] is: Table 1, MTT, 48 hours, read-out: Cell growth inhibition (GI50 in μM) NCI H460.
[7] abbreviates: Table 9, Lung, read-out: Anti-proliferative activity (GI50) NCI-H460.
Where [8] appears, read: Table 1, MTT, 48 hours, read-out: Cell growth inhibition (GI50 in μM) PA-1.
The mark [9] stands for this setting: Table 9, Ovary, read-out: Anti-proliferative activity (GI50) PA-1.

T4 sequence (P10635 whole entry): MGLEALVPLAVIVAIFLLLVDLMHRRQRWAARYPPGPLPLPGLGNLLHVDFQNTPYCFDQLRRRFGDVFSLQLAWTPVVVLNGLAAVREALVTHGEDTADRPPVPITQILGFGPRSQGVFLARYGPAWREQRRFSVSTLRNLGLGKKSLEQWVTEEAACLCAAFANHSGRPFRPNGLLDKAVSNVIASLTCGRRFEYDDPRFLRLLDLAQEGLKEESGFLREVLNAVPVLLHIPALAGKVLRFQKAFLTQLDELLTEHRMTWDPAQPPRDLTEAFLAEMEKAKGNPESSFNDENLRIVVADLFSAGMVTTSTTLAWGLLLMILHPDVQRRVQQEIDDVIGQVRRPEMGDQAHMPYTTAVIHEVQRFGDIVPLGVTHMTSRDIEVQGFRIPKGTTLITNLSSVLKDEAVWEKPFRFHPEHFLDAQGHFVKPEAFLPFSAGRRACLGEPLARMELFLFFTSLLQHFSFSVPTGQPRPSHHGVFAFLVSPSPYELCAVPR
T3 sequence (P11712 whole entry): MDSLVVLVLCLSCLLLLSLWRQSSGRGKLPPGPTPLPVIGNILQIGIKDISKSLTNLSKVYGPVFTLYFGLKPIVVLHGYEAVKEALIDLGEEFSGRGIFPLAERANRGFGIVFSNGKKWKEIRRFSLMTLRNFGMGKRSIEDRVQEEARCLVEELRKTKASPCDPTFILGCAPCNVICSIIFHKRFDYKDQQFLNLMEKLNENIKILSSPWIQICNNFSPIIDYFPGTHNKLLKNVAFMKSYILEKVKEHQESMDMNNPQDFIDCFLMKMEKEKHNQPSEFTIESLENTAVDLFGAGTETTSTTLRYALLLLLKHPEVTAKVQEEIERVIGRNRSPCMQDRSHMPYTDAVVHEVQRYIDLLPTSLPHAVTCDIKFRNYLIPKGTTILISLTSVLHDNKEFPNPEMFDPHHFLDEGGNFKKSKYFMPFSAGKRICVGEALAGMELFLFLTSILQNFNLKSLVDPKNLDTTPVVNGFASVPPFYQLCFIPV
T2 sequence (P33261 whole entry): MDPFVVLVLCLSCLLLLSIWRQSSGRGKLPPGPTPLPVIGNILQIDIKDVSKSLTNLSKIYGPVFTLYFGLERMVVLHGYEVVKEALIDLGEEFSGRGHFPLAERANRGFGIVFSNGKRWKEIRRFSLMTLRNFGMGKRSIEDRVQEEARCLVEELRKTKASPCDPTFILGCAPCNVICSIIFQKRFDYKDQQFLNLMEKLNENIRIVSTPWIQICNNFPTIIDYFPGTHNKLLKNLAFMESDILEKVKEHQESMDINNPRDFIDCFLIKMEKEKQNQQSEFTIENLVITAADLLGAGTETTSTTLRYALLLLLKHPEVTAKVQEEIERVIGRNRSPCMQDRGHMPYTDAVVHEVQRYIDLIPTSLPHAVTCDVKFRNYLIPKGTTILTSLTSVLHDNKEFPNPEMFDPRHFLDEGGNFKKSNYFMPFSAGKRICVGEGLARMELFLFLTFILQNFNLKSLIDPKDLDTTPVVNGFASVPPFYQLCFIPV

Take `O=C(NO)c1ccc(Cn2cc(-c3ccc(CN4CCCC4)cc3)nn2)cc1` [Example 8, N-Hydroxy-4-[4-(4-pyrrolidin-1-ylmethyl-phenyl)-[1,2,3]triazol-1-ylmethyl]-benzamide]: the PARP cleavage result with cleaved PARP was “+++”. Moreover, the IC50 (as a rule, the midpoint of a concentration-inhibition curve) on CYP 1A2 (setting [2]) was over 60 µM; on CYP 2C19 (setting [3]), over 60 µM; at CYP 2C9 (setting [4]), over 60 µM; at CYP 2D6 (setting [5]) it was 26 µM. Moreover, in the series on acetyl-Histone H4, the “Target modulation: H4 acetylation” value is “++++”. For the same compound, the midpoint of the response with Caspase-3, the EC50, lay at 1360 nM. Moreover, the GI50 (as a rule, the concentration giving 50% growth inhibition) in the series on NCI-H460 (setting [6]) is 2.1 µM; in the series with NCI-H460 (setting [7]), 1.9 ± 0.75 µM; in the series on PA-1 (setting [8]) it was 0.15 ± 0.05 µM; in the series with PA-1 (setting [9]), 0.1 ± 0.01 µM. The solubility (usually the dissolved amount per volume that the medium holds) in [1] came to 5100 µg/mL (≈ 13.5 mM).

As for `O=C(NO)c1ccc(Cn2cc(-c3ccc(CN4CCOCC4)cc3)nn2)cc1` [Example 9, N-Hydroxy-4-[4-(4-morpholin-4-ylmethyl-phenyl)-[1,2,3]triazol-1-ylmethyl]-benzamide], the PARP cleavage result with cleaved PARP is “+++”. Moreover, the IC50 on CYP 1A2 (setting [2]), on CYP 2C19 (setting [3]), at CYP 2C9 (setting [4]) and at CYP 2D6 (setting [5]) was over 60 µM throughout. Also, in the series with acetyl-Histone H4, the “Target modulation: H4 acetylation” value is on record as “++++”. In the series with Caspase-3, it took 1500 nM to reach a half-maximal effect (EC50). Further, the GI50 in the series on NCI-H460 (setting [7]) is 2.4 ± 0.85 µM; in the series on PA-1 (setting [8]) it was 0.22 ± 0.03 µM; with PA-1 (setting [9]), 0.2 ± 0.037 µM. The compound also displayed a solubility in series [1] of 4700 µg/mL (≈ 11.9 mM).

Regarding `O=C(/C=C/c1ccc(Cn2cc(-c3ccc(CN4CCCC4)cc3)nn2)cc1)NO` [Example 16, N-Hydroxy-3-{4-[4-(4-pyrrolidin-1-ylmethyl-phenyl)-[1,2,3]triazol-1-ylmethyl]-phenyl}-acrylamide], the PARP cleavage entry with cleaved PARP was “++++”. The IC50 at CYP 1A2 (setting [2]) was over 60 µM; on CYP 2C19 (setting [3]), over 60 µM; on CYP 2C9 (setting [4]), over 60 µM; at CYP 2D6 (setting [5]) it was 13.2 µM. Moreover, the “Target modulation: H4 acetylation” value in the series with acetyl-Histone H4 is given as “++++”. For the same compound, in the series on Caspase-3, the EC50 (in general, the concentration at which the effect is half-maximal) worked out at 6590 nM. The GI50 in the series on NCI-H460 (setting [6]) was 0.4 µM; with NCI-H460 (setting [7]), 0.3 ± 0.04 µM; in the series with PA-1 (setting [8]), 0.09 ± 0.04 µM; with PA-1 (setting [9]) it was 0.08 ± 0.04 µM. The compound also gave a solubility in series [1] of 9400 µg/mL (≈ 23.3 mM).

For `CN(C)Cc1ccc(-c2cn(Cc3ccc(/C=C/C(=O)NO)cc3)nn2)cc1` [Example 21], the PARP cleavage entry with cleaved PARP was “++++”. Also, the IC50 at CYP 1A2 (setting [2]), on CYP 2C19 (setting [3]), on CYP 2C9 (setting [4]) and at CYP 2D6 (setting [5]) was over 60 µM in each case. The “Target modulation: H4 acetylation” value in the series with acetyl-Histone H4 is “++++”. The midpoint of the response with Caspase-3, the EC50, lay at 4090 nM. Also, the GI50 in the series on NCI-H460 (setting [7]) worked out at 1.9 ± 0.74 µM; in the series with PA-1 (setting [8]) it was 0.11 ± 0.04 µM; in the series with PA-1 (setting [9]), 0.1 ± 0.01 µM. In [1], this compound gave a solubility of 11600 µg/mL (≈ 30.7 mM).

For the compound `O=C(/C=C/c1cccc(Cn2cc(-c3ccc(CN4CCOCC4)cc3)nn2)c1)NO` [Example 25, N-Hydroxy-3-{3-[4-(4-morpholin-4-ylmethyl-phenyl)-[1,2,3]triazol-1-ylmethyl]-phenyl}-acrylamide hydrochloride], the PARP cleavage result with cleaved PARP is recorded as “+++”. For the same compound, the IC50 was over 60 µM at CYP 1A2 (setting [2]), over 60 µM on CYP 2C19 (setting [3]), 51.5 µM on CYP 2C9 (setting [4]) and over 60 µM at CYP 2D6 (setting [5]). Further, the “Target modulation: H4 acetylation” value with acetyl-Histone H4 was “++++”. The compound further displayed an EC50 with Caspase-3 of 3620 nM. Moreover, the GI50 with NCI-H460 (setting [6]) came out at 0.8 µM; with NCI-H460 (setting [7]), 0.45 ± 0.28 µM; with PA-1 (setting [8]) it was 0.04 ± 0.01 µM; in the series with PA-1 (setting [9]), 0.04 ± 0.01 µM. Also, the solubility in series [1] worked out at 2900 µg/mL.

For the compound `O=C(CCCCCCC(=O)Nc1ccccc1)NO` [SAHA, Suberoylanilide Hydroxamic Acid, reference compound], the PARP cleavage entry with cleaved PARP is “++”. Further, the IC50 against CYP 1A2 amounted to 9.7 µM; against CYP 2C19, 2.9 µM; against CYP 2C9, 29.7 µM; at CYP 2D6, 3.6 µM. Also, the “Target modulation: H4 acetylation” value with acetyl-Histone H4 is “+++”. The compound also had a solubility in series [1] of 230 µg/mL (≈ 0.87 mM).

Source of the values: patent US20120101099A1, “HISTONE DEACETYLASE INHIBITORS” (ANTHEM BIOSCIENCES PRIVATE LIMITED, priority 2009, published 2012).
